Test results from ChEMBL document CHEMBL1141026, “Synthesis, in vitro antitrypanosomal and antibacterial activity of phenoxy, phenylthio or benzyloxy substituted quinolones” (Bioorg Med Chem Lett, 2009).
≈ marks a conversion by molar mass, not a printed value.

How the values were obtained:
Trypanosoma cruzi = assay: Antitrypanosomal activity against trypomastigotes of Trypanosoma cruzi Tulahuen C2C4 containing lacZ gene in rat L6 cells after 4 days; type: functional, organism-based; conditions: L6, 96 h
Escherichia coli = assay: Antibacterial activity against Escherichia coli after 24 hrs by agar dilution method; type: functional
Streptococcus = assay: Antibacterial activity against gamma-streptococcus after 24 hrs by agar dilution method; type: functional
Staphylococcus = assay: Antibacterial activity against Staphylococcus albus after 24 hrs by agar dilution method; type: functional
Streptococcus pneumoniae = assay: Antibacterial activity against Streptococcus pneumoniae after 24 hrs by agar dilution method; type: functional
Morganella morganii = assay: Antibacterial activity against Morganella morganii after 24 hrs by agar dilution method; type: functional
Aeromonas hydrophila = assay: Antibacterial activity against Aeromonas hydrophila after 24 hrs by agar dilution method; type: functional
Pseudomonas aeruginosa = assay: Antibacterial activity against Pseudomonas aeruginosa after 24 hrs by agar dilution method; type: functional
Klebsiella pneumoniae = assay: Antibacterial activity against Klebsiella pneumoniae after 24 hrs by agar dilution method; type: functional
Citrobacter freundii = assay: Antibacterial activity against Citrobacter freundii after 24 hrs by agar dilution method; type: functional
Serratia marcescens = assay: Antibacterial activity against Serratia marcescens after 24 hrs by agar dilution method; type: functional
Proteus mirabilis = assay: Antibacterial activity against Proteus mirabilis after 24 hrs by agar dilution method; type: functional
Enterococcus faecalis = assay: Antibacterial activity against Enterococcus faecalis after 24 hrs by agar dilution method; type: functional
[1] = test system: Salmonella enterica subsp. enterica; assay: Antibacterial activity against Salmonella enteritidis after 24 hrs by agar dilution method; type: functional, Salmonella enterica subsp. enterica serovar Enteritidis
Staphylococcus aureus = assay: Antibacterial activity against Staphylococcus aureus after 24 hrs by agar dilution method; type: functional
Salmonella typhimurium = assay: Antibacterial activity against Salmonella Typhimurium after 24 hrs by agar dilution method; type: functional, Salmonella enterica subsp. enterica serovar Typhimurium; conditions: Salmonella enterica
[2] = test system: Staphylococcus epidermidis; assay: Antibacterial activity against Staphylococcus epidermidis after 24 hrs by agar dilution method; type: functional
Proteus vulgaris = assay: Antibacterial activity against Proteus vulgaris after 24 hrs by agar dilution method; type: functional
Shigella boydii = assay: Antibacterial activity against Shigella boydii after 24 hrs by agar dilution method; type: functional
Shigella sonnei = assay: Antibacterial activity against Shigella sonnei after 24 hrs by agar dilution method; type: functional
Shigella flexneri = assay: Antibacterial activity against Shigella flexneri after 24 hrs by agar dilution method; type: functional

CCn1cc(C(=O)OC)c(=O)c2cc(F)c(Sc3ccccc3)c(Sc3ccccc3)c21
IC50 (Trypanosoma cruzi): 2.4 µg/mL (≈ 5.15 µM)

CCn1cc(C(=O)O)c(=O)c2cc(Sc3ccccc3)c(Sc3ccccc3)c(Sc3ccccc3)c21
IC50 (Trypanosoma cruzi): 39.9 µg/mL (≈ 73.7 µM)

CCn1cc(C(=O)O)c(=O)c2cc(F)c(Sc3ccc(C)cc3)c(Sc3ccc(C)cc3)c21
IC50 (Trypanosoma cruzi): 52.7 µg/mL (≈ 110 µM)

CCn1cc(C(N)=O)c(=O)c2cc(F)c(Oc3ccccc3)c(Oc3ccccc3)c21
IC50 (Trypanosoma cruzi): 4 µg/mL (≈ 9.56 µM)

CCn1cc(C(N)=O)c(=O)c2cc(F)c(Sc3ccccc3)c(Sc3ccccc3)c21
IC50 (Trypanosoma cruzi): > 90 µg/mL

CCn1cc(C(=O)O)c(=O)c2cc(F)c(OCc3ccccc3)c(OCc3ccccc3)c21
IC50 (Trypanosoma cruzi): 1.3 µg/mL (≈ 2.91 µM)

O=C(O)c1cn(C2CC2)c2c(F)c(Oc3ccccc3)c(F)cc2c1=O
IC50 (Trypanosoma cruzi): > 90 µg/mL | MIC (Escherichia coli): 3.13 µg/mL (≈ 8.76 µM) | MIC (Streptococcus): > 25 µg/mL | MIC (Staphylococcus): 1.56 µg/mL (≈ 4.37 µM) | MIC (Streptococcus pneumoniae): 0.098 µg/mL (≈ 0.274 µM) | MIC (Morganella morganii): 3.13 µg/mL (≈ 8.76 µM) | MIC (Aeromonas hydrophila): 6.25 µg/mL (≈ 17.5 µM) | MIC (Pseudomonas aeruginosa): 12.5 µg/mL (≈ 35 µM) | MIC (Klebsiella pneumoniae): 1.56 µg/mL (≈ 4.37 µM) | MIC (Citrobacter freundii): 1.56 µg/mL (≈ 4.37 µM) | MIC (Serratia marcescens): 12.5 µg/mL (≈ 35 µM) | MIC (Proteus mirabilis): 6.25 µg/mL (≈ 17.5 µM) | MIC (Enterococcus faecalis): 12.5 µg/mL (≈ 35 µM) | MIC [1]: 3.13 µg/mL (≈ 8.76 µM) | MIC (Staphylococcus aureus): 0.39 µg/mL (≈ 1.09 µM) | MIC (Salmonella typhimurium): 3.13 µg/mL (≈ 8.76 µM) | MIC [2]: 1.56 µg/mL (≈ 4.37 µM) | MIC (Proteus vulgaris): 6.25 µg/mL (≈ 17.5 µM) | MIC (Shigella boydii): 1.56 µg/mL (≈ 4.37 µM) | MIC (Shigella sonnei): 1.56 µg/mL (≈ 4.37 µM) | MIC (Shigella flexneri): > 25 µg/mL

CCn1cc(C(=O)O)c(=O)c2cc(F)c(Sc3ccccc3)c(F)c21
IC50 (Trypanosoma cruzi): 34.6 µg/mL (≈ 95.7 µM) | MIC (Escherichia coli): > 25 µg/mL | MIC (Streptococcus): > 25 µg/mL | MIC (Staphylococcus): > 25 µg/mL | MIC (Streptococcus pneumoniae): 0.78 µg/mL (≈ 2.16 µM) | MIC (Morganella morganii): > 25 µg/mL | MIC (Aeromonas hydrophila): > 25 µg/mL | MIC (Pseudomonas aeruginosa): > 25 µg/mL | MIC (Klebsiella pneumoniae): 12.5 µg/mL (≈ 34.6 µM) | MIC (Citrobacter freundii): 12.5 µg/mL (≈ 34.6 µM) | MIC (Serratia marcescens): > 25 µg/mL | MIC (Proteus mirabilis): > 25 µg/mL | MIC (Enterococcus faecalis): > 25 µg/mL | MIC [1]: > 25 µg/mL | MIC (Staphylococcus aureus): 3.13 µg/mL (≈ 8.66 µM) | MIC (Salmonella typhimurium): > 25 µg/mL | MIC [2]: 3.13 µg/mL (≈ 8.66 µM) | MIC (Proteus vulgaris): > 25 µg/mL | MIC (Shigella boydii): 12.5 µg/mL (≈ 34.6 µM) | MIC (Shigella sonnei): 12.5 µg/mL (≈ 34.6 µM) | MIC (Shigella flexneri): > 25 µg/mL

CCn1cc(C(=O)O)c(=O)c2cc(F)c(OCc3ccccc3)c(F)c21
IC50 (Trypanosoma cruzi): 18.3 µg/mL (≈ 50.9 µM) | MIC (Escherichia coli): > 25 µg/mL | MIC (Streptococcus): > 25 µg/mL | MIC (Staphylococcus): > 25 µg/mL | MIC (Streptococcus pneumoniae): 1.56 µg/mL (≈ 4.34 µM) | MIC (Morganella morganii): > 25 µg/mL | MIC (Aeromonas hydrophila): > 25 µg/mL | MIC (Pseudomonas aeruginosa): > 25 µg/mL | MIC (Klebsiella pneumoniae): 6.25 µg/mL (≈ 17.4 µM) | MIC (Citrobacter freundii): 25 µg/mL (≈ 69.6 µM) | MIC (Serratia marcescens): > 25 µg/mL | MIC (Proteus mirabilis): > 25 µg/mL | MIC (Enterococcus faecalis): > 25 µg/mL | MIC [1]: > 25 µg/mL | MIC (Staphylococcus aureus): 6.25 µg/mL (≈ 17.4 µM) | MIC (Salmonella typhimurium): 25 µg/mL (≈ 69.6 µM) | MIC [2]: 25 µg/mL (≈ 69.6 µM) | MIC (Proteus vulgaris): > 25 µg/mL | MIC (Shigella boydii): 25 µg/mL (≈ 69.6 µM) | MIC (Shigella sonnei): 12.5 µg/mL (≈ 34.8 µM) | MIC (Shigella flexneri): > 25 µg/mL

O=C(O)c1cn(C2CC2)c2c(F)c(OCc3ccccc3)c(F)cc2c1=O
IC50 (Trypanosoma cruzi): > 90 µg/mL | MIC (Escherichia coli): 1.56 µg/mL (≈ 4.2 µM) | MIC (Streptococcus): 6.25 µg/mL (≈ 16.8 µM) | MIC (Staphylococcus): 6.25 µg/mL (≈ 16.8 µM) | MIC (Streptococcus pneumoniae): 1.56 µg/mL (≈ 4.2 µM) | MIC (Morganella morganii): 6.25 µg/mL (≈ 16.8 µM) | MIC (Aeromonas hydrophila): 3.13 µg/mL (≈ 8.43 µM) | MIC (Pseudomonas aeruginosa): 6.25 µg/mL (≈ 16.8 µM) | MIC (Klebsiella pneumoniae): 0.78 µg/mL (≈ 2.1 µM) | MIC (Citrobacter freundii): 1.56 µg/mL (≈ 4.2 µM) | MIC (Serratia marcescens): 6.25 µg/mL (≈ 16.8 µM) | MIC (Proteus mirabilis): 6.25 µg/mL (≈ 16.8 µM) | MIC (Enterococcus faecalis): 12.5 µg/mL (≈ 33.7 µM) | MIC [1]: 3.13 µg/mL (≈ 8.43 µM) | MIC (Staphylococcus aureus): 1.56 µg/mL (≈ 4.2 µM) | MIC (Salmonella typhimurium): 1.56 µg/mL (≈ 4.2 µM) | MIC [2]: 1.56 µg/mL (≈ 4.2 µM) | MIC (Proteus vulgaris): 6.25 µg/mL (≈ 16.8 µM) | MIC (Shigella boydii): 1.56 µg/mL (≈ 4.2 µM) | MIC (Shigella sonnei): 1.56 µg/mL (≈ 4.2 µM) | MIC (Shigella flexneri): > 25 µg/mL

CCn1cc(C(=O)OC)c(=O)c2cc(F)c(Oc3ccccc3)c(Oc3ccccc3)c21
IC50 (Trypanosoma cruzi): > 90 µg/mL

CCOC(=O)c1cn(CC)c2c(Oc3ccccc3)c(Oc3ccccc3)c(F)cc2c1=O
IC50 (Trypanosoma cruzi): 1.7 µg/mL (≈ 3.8 µM)

CCOC(=O)c1cn(CC)c2c(Sc3ccccc3)c(Sc3ccccc3)c(F)cc2c1=O
IC50 (Trypanosoma cruzi): 6 µg/mL (≈ 12.5 µM)

CCOC(=O)c1cn(CC)c2c(OCc3ccccc3)c(OCc3ccccc3)c(F)cc2c1=O
IC50 (Trypanosoma cruzi): 1.7 µg/mL (≈ 3.58 µM)

CCn1cc(C(=O)O)c(=O)c2cc(F)c(Oc3ccc(O)cc3)c(Oc3ccc(O)cc3)c21
IC50 (Trypanosoma cruzi): 57.1 µg/mL (≈ 126 µM)

CCn1cc(C(=O)O)c(=O)c2cc(OCc3ccccc3)c(OCc3ccccc3)c(OCc3ccccc3)c21
IC50 (Trypanosoma cruzi): 2.5 µg/mL (≈ 4.67 µM)
